Assay results from patent US20250332300A1 (priority 2024, published 2025).
pIC50, pKd: −log10 of the molar value. Where a name gives a salt, the structure may show the parent alone. Read-outs that look alike come from different tables or passages of the source. Starred links: 1 amine or outer side, 2 acyl side, 3 side chain; linkers in the order of their positions; H or OH if unused. Positions of bridges follow the written chain, without caps; N, C: chain ends. Non-standard residues stand in square brackets, D forms with d. Residues, ends and D or L forms follow the SMILES beside them. *: point of attachment. Trp(5-OH) = N[C@@H](Cc1c[nH]c2ccc(O)cc12)C(=O)O; X9 = CN([C@@H](CCc1cccc(Cl)c1)C(=O)[*:2])[*:1]; NMePhe(4-F) = CN[C@@H](Cc1ccc(F)cc1)C(=O)O; β2hAla(2S) = C[C@@H](CN[*:1])C(=O)[*:2]; NMehPhe = CN[C@@H](CCc1ccccc1)C(=O)O; NMeE = CN[C@@H](CCC(=O)O)C(=O)O; Aad = N[C@@H](CCCC(=O)O)C(=O)O; Gly(cPr) = N[C@H](C(=O)O)C1CC1; NMeK = CN[C@@H](CCCCN)C(=O)O; NMeDap = CN[C@@H](CN)C(=O)O; Tfa = O=C(C(F)(F)F)*

Key:
human HER2 (23-652) = human HER2 (23-652) (Homo sapiens, UniProt P04626); assay: Surface plasmon resonance (SPR) for assessment of peptide affinity, human HER2; type: binding; parameters: towards human HER2 (23-652) and mouse HER2 (23-653); made in house
Protocol: Each protein was immobilized either onto a SA sensorchip (Cytiva, BR-1005-31) or CM5 sensorchip (Cytiva, BR-1005-30) to a density of 800-2000 RU. […] For the assay setup the same conditions (flow rate, running buffer, peptide dilution) as described above were used. In a first step the Anti Fc IgG Ab (from Human Antibody Capture Kit, Ref. 29234600, Cytiva) was diluted into acetate pH 5.0 at 25 ug/mL and immobilized at a flow rate of 10 uL/min over 360 s to reach a density around 6000 RU. […] The peptides were tested with an association time of 280 s followed by a dissociation time of 3000 s at a flow rate of 30 uL/min. The regeneration was done using 3 M magnesium chloride regeneration solution as obtained with a contact time of 30 s at a flow rate of 10 uL/min. Curve fitting was performed using the BiacoreTM 8K evaluation software.

mouse HER2 (23-653) = mouse HER2 (23-653) (Mus musculus, UniProt P70424); assay: TR-FRET competition assay for peptide potency, mouse HER2; type: binding; parameters: mouse HER2 (23-653) using a Cy5 labeled peptide as a probe; made in house; host or cells: mammalian cells; conditions: TR-FRET competition with Cy5 labeled peptide probe, 0.1 nM mouse HER2, 24 h incubation; read-out: moHER2 TR-FRET IC50
Protocol: Both proteins containing a His-, Avi-tag and biotin in Nterminus, were expressed in mammalian cells and produced in house. […] Standard assay conditions consist of 20 uL total volume in white 384-well plates (Greiner), in 10 mM HEPES buffer containing 150 mM NaCl, 3 mM EDTA, 0.05% Tween20 and 1% final DMSO. […] The ratiometric FRET assay readout is calculated from the ratio of the raw data of the two distinct fluorescence signals measured in time resolved mode (fluorescence 665 nm/fluorescence 620 nm). IC50 values were calculated with the standard Novartis in-house assay data analysis software (Helios software application, Novartis Institutes for BioMedical Research, unpublished) using the methods described in Comput. Methods. Programs. Biomed. 2006, 82, 31-37 (regression algorithms for nonlinear dose-response curve fitting).

[1] = SPR, human HER2 extracellular domain, 25° C., 1:1 binding model, read-out: huHER2-SPR-ONC KD

SMILES: CC(=O)N[C@H]1CCCC(=O)NC[C@@H](C(=O)N(C)[C@@H](Cc2ccc(F)cc2)C(N)=O)N(C)C(=O)[C@H](C2CC2)NC(=O)[C@H](Cc2c[nH]c3ccccc23)NC(=O)[C@H](Cc2c[nH]c3ccc(O)cc23)NC(=O)[C@H](CCCCNC(=O)C(F)(F)F)N(C)C(=O)[C@H](CCc2ccccc2)N(C)C(=O)[C@H](CO)NC(=O)[C@H](Cc2ccc(O)cc2)NC1=O [Example A4, (3S,6S,9S,12S,15S,18S,21S,24S,27S)-9-((1H-indol-3-yl)methyl)-27-acetamido-N-((S)-1-amino-3-(4-fluorophenyl)-1-oxopropan-2-yl)-6-cyclopropyl-12-((5-hydroxy-1H-indol-3-yl)methyl)-24-(4-hydroxybenzyl)-21-(hydroxymethyl)-N,4,16,19-tetramethyl-5,8,11,14,17,20,23,26,31-nonaoxo-18-phenethyl-15-(4-(2,2,2-trifluoroacetamido)butyl)-1,4,7,10,13,16,19,22,25-nonaazacyclohentriacontane-3-carboxamide] (Ac-[Aad]YS[NMehPhe][NMeK](Tfa)[Trp(5-OH)]W[Gly(cPr)][NMeDap][NMePhe(4-F)]-NH2; lactam 1-9)
- pKd (human HER2 (23-652); [1]): 8.05
- pIC50 (mouse HER2 (23-653)): 7.54

SMILES: CC(=O)N[C@H]1CCCC(=O)NC[C@@H](C(=O)N(C)[C@@H](Cc2ccc(F)cc2)C(=O)N[C@@H](CCCCNC(=O)CN2CCN(CC(=O)O)CCN(CC(=O)O)CCN(CC(=O)O)CC2)C(N)=O)N(C)C(=O)[C@H]([C@H](C)O)NC(=O)[C@H](Cc2c[nH]c3ccccc23)NC(=O)[C@H](Cc2c[nH]c3ccc(O)cc23)NC(=O)[C@H](CCCCNC(=O)CCO)N(C)C(=O)[C@H](CCc2ccccc2)N(C)C(=O)[C@H](CO)NC(=O)[C@H](Cc2ccc(O)cc2)NC1=O [Example C22]
- pKd (human HER2 (23-652); [1]): 9.30

SMILES: CC[N+]1=C(/C=C/C=C/C=C2/N(CCCCCC(=O)NCCOCCOCCOCCOCCOCCOCCOCCOCCOCCOCCC(=O)NCCCC[C@H](NC(=O)[C@H](Cc3ccc(F)cc3)N(C)C(=O)[C@@H]3CNC(=O)CCC[C@H](NC(C)=O)C(=O)N[C@@H](Cc4ccc(O)cc4)C(=O)N[C@@H](CO)C(=O)N(C)[C@@H](CCc4ccccc4)C(=O)N(C)[C@@H](CCCCNC(C)=O)C(=O)N[C@@H](Cc4c[nH]c5ccc(O)cc45)C(=O)N[C@@H](Cc4c[nH]c5ccccc45)C(=O)N[C@@H](C4CC4)C(=O)N3C)C(N)=O)c3ccc(S(=O)(=O)O)cc3C2(C)C)C(C)(C)c2cc(S(=O)(=O)[O-])ccc21 [Example D7]
- pKd (human HER2 (23-652)): > 10.00

SMILES: CC(=O)NCCCC[C@H]1C(=O)N[C@@H](Cc2c[nH]c3ccc(O)cc23)C(=O)N[C@@H](Cc2c[nH]c3ccccc23)C(=O)N[C@@H](C2CC2)C(=O)N(C)[C@H](C(=O)N(C)[C@@H](Cc2ccc(F)cc2)C(N)=O)CCC(=O)NC[C@H](C)C(=O)N[C@@H](Cc2ccc(O)cc2)C(=O)N[C@@H](CO)C(=O)N(C)[C@@H](CCc2ccccc2)C(=O)N1C [Example A22, (3S,6S,9S,12S,15S,18S,21S,24S,30S)-6-((1H-indol-3-yl)methyl)-12-(4-acetamidobutyl)-N-((S)-1-amino-3-(4-fluorophenyl)-1-oxopropan-2-yl)-3-cyclopropyl-9-((5-hydroxy-1H-indol-3-yl)methyl)-21-(4-hydroxybenzyl)-18-(hydroxymethyl)-N,1,13,16,24-pentamethyl-2,5,8,11,14,17,20,23,27-nonaoxo-15-phenethyl-1,4,7,10,13,16,19,22,26-nonaazacyclotriacontane-30-carboxamide] ([β2hAla(2S)]YS[NMehPhe][NMeK](Ac)[Trp(5-OH)]W[Gly(cPr)][NMeE][NMePhe(4-F)]-NH2; lactam N-9)
- pKd (human HER2 (23-652); [1]): 8.01
- pIC50 (mouse HER2 (23-653)): 8.00

SMILES: CC[N+]1=C(/C=C/C=C/C=C2/N(CCCCCC(=O)NCCOCCOCCOCCOCCOCCOCCOCCOCCOCCOCCC(=O)N[C@H]3CCCC(=O)NC[C@@H](C(=O)N(C)[C@@H](Cc4ccc(F)cc4)C(=O)N[C@@H](CCCCNC(=O)CN4CCN(CC(=O)O)CCN(CC(=O)O)CCN(CC(=O)O)CC4)C(N)=O)N(C)C(=O)[C@H](C4CC4)NC(=O)[C@H](Cc4c[nH]c5ccccc45)NC(=O)[C@H](Cc4c[nH]c5ccc(O)cc45)NC(=O)[C@H](CCCCNC(C)=O)N(C)C(=O)[C@H](CCc4ccccc4)N(C)C(=O)[C@H](CO)NC(=O)[C@H](Cc4ccc(O)cc4)NC3=O)c3ccc(S(=O)(=O)O)cc3C2(C)C)C(C)(C)c2cc(S(=O)(=O)[O-])ccc21 [Example D6]
- pKd (human HER2 (23-652); [1]): 10.00

SMILES: CC(=O)NCCCC[C@H]1C(=O)N[C@@H](Cc2c[nH]c3ccc(O)cc23)C(=O)N[C@@H](Cc2c[nH]c3ccccc23)C(=O)N[C@@H](C2CC2)C(=O)N(C)[C@H](C(=O)N(C)[C@@H](Cc2ccc(F)cc2)C(N)=O)CNC(=O)CCC[C@H](NC(C)=O)C(=O)N[C@@H](Cc2ccc(O)cc2)C(=O)N[C@@H](CO)C(=O)N(C)[C@@H](CCc2cccc(Cl)c2)C(=O)N1C [Example A8, (3S,6S,9S,12S,15S,18S,21S,24S,27S)-9-((1H-indol-3-yl)methyl)-27-acetamido-15-(4-acetamidobutyl)-N-((S)-1-amino-3-(4-fluorophenyl)-1-oxopropan-2-yl)-18-(3-chlorophenethyl)-6-cyclopropyl-12-((5-hydroxy-1H-indol-3-yl)methyl)-24-(4-hydroxybenzyl)-21-(hydroxymethyl)-N,4,16,19-tetramethyl-5,8,11,14,17,20,23,26,31-nonaoxo-1,4,7,10,13,16,19,22,25-nonaazacyclohentriacontane-3-carboxamide] (Ac-[Aad]YS[X9][NMeK](Ac)[Trp(5-OH)]W[Gly(cPr)][NMeDap][NMePhe(4-F)]-NH2; lactam 1-9)
- pKd (human HER2 (23-652); [1]): 9.00
- pIC50 (mouse HER2 (23-653)): 8.64

SMILES: CC(=O)NCCCC[C@H]1C(=O)N[C@@H](Cc2c[nH]c3ccc(O)cc23)C(=O)N[C@@H](Cc2c[nH]c3ccccc23)C(=O)N[C@@H](C2CC2)C(=O)N(C)[C@H](C(=O)N(C)[C@@H](Cc2ccc(F)cc2)C(=O)N[C@@H](CCCCNC(=O)CN2CCN(CC(=O)O)CCN(CC(=O)O)CCN(CC(=O)O)CC2)C(N)=O)CNC(=O)CCC[C@H](NC(C)=O)C(=O)N[C@@H](Cc2ccc(O)cc2)C(=O)N[C@@H](CO)C(=O)N(C)[C@@H](CCc2ccccc2)C(=O)N1C [Example C29]
- pIC50 (mouse HER2 (23-653)): 9.70

SMILES: CC[N+]1=C(/C=C/C=C/C=C2/N(CCCCCC(=O)NCCCC[C@H](NC(=O)[C@H](Cc3ccc(F)cc3)N(C)C(=O)[C@@H]3CNC(=O)CCC[C@H](NC(C)=O)C(=O)N[C@@H](Cc4ccc(O)cc4)C(=O)N[C@@H](CO)C(=O)N(C)[C@@H](CCc4ccccc4)C(=O)N(C)[C@@H](CCCCNC(C)=O)C(=O)N[C@@H](Cc4c[nH]c5ccc(O)cc45)C(=O)N[C@@H](Cc4c[nH]c5ccccc45)C(=O)N[C@@H](C4CC4)C(=O)N3C)C(N)=O)c3ccc(S(=O)(=O)O)cc3C2(C)C)C(C)(C)c2cc(S(=O)(=O)[O-])ccc21 [Example D1]
- pKd (human HER2 (23-652); [1]): > 10.00

SMILES: CC[N+]1=C(/C=C/C=C/C=C2/N(CCCCCC(=O)NCCCC[C@H](NC(=O)[C@H](Cc3ccc(F)cc3)N(C)C(=O)[C@@H]3CNC(=O)CC[C@H](NC(C)=O)C(=O)N[C@@H](Cc4ccc(O)cc4)C(=O)N[C@@H](CO)C(=O)N(C)[C@@H](CCc4ccccc4)C(=O)N(C)[C@@H](CCCCNC(C)=O)C(=O)N[C@@H](Cc4c[nH]c5ccc(O)cc45)C(=O)N[C@@H](Cc4c[nH]c5ccccc45)C(=O)N[C@@H]([C@H](C)O)C(=O)N3C)C(N)=O)c3ccc(S(=O)(=O)O)cc3C2(C)C)C(C)(C)c2cc(S(=O)(=O)O)ccc21 [Example D4]
- pKd (human HER2 (23-652)): 9.40
